Values joined by “and” are separate entries in the source; they are usually repeats but may differ in a detail not shown here. Equal entries are not always repeated.
Assay: Single dose oral capsule pharmacokinetics of BHV-3500 in dogs (plasma LC-MS/MS)
Type: in vivo, beagle dogs
Set-up: key to t1/2 / Tmax / Cmax / AUC0-4 hr: X = no plasma exposure
Conditions: for increase of plasma level versus no vehicle (Group 4): Group 5, 50 mg with Vehicle 6
Procedure: The pharmacokinetics (PK) of BHV-3500 after a single oral capsule of BHV-3500 in dogs were investigated.
After each dose, blood samples (approximately 3 mL from the jugular vein) for determination of plasma levels of BHV-3500 were obtained from of each dog at six time points (pre-dose; 15, 30, and 60 minutes and 2 and 4 hours post-dose. EDTA was used as the anticoagulant. Plasma samples were frozen at approximately −70′C until analyzed.
For the determination of BHV-3500 in plasma, a 50 μL aliquot from each sample was transferred into the appropriate well of a 96-well plate to which 10 μL of 50% acetonitrile (ACN) in water was added, followed by 250 μL of internal standard solution (10 ng/mL BHV-3500-d8 in ACN). After sealing the plate and vortexing for approximately 5 minutes, the plate was centrifuged at 4,000 rpm for 10 minutes at 4±4° C. A portion (100 μL) of the resulting supernatant was transferred to into the appropriate well (containing 300 μL 0.15% formic acid in water) of another 96-well plate. This plate was sealed and its contents mixed prior to instrumental analysis.
Freshly prepared BHV-3500 standard curves and QC samples were analyzed along with the study samples. Instrument calibrators were prepared by adding 10 μL of a stock BHV-3500 solution to 50 μL of blank dog plasma. Blank dog plasma was sourced from BioIVT (Hicksville, NY) and stored frozen at −20° C. Nominal calibrator concentrations ranged from 2.00 to 200 ng/mL. QC samples were prepared at concentrations of 6.00, 50.0 and 150 ng/mL. Calibrators and QC samples were processed for analysis following the extraction procedure described above.
Calibrator, QC and study samples were analyzed under LC-S/MS instrument conditions detailed in Table 7.
Calibration curves were calculated from the linear regression (weighting factor of 1/x2) of the analyte to internal standard peak area ratios versus the analyte concentrations. Concentrations of analyte in the samples were determined using the peak area ratios and the regression parameters of the calibration curves.
Individual animal plasma BHV-3500 concentration data at scheduled (nominal) sampling times were analyzed using the non-compartmental model f r extravascular administration with Phoenix WinNonlin software (Version 8.1; Certara, Princeton, NJ).
Elimination rate constant values (λz) were calculated by log-linear regression on data points of the terminal phase (using Phoenix WinNonlin's Best Fit Lambda Z Calculation Method option) when allowed by the data; the plasma elimination half-life (t1/2) was calculated as ln(2)/λz. Area under the plasma concentration-time curve values from time zero to the concentration at the 4 hour time point (AUC0-4 hr) were calculated by the linear-up/log-down trapezoidal rule.
Nominal dose levels were used for PK analysis. The PK parameters listed below were evaluated (as applicable and when allowed by the data). • Elimination half-life (t1/2) • Time of occurrence of maximum plasma concentration (Tmax) • Maximum plasma concentration (Cmax) • Area under plasma concentration-time curve [0 to the 4 hour time point; AUC0-4hr]

[1] = Group 1, oral capsule, 20 mg BHV-3500, no vehicle, average
[2] = Group 1, oral capsule, 20 mg BHV-3500, no vehicle, median
[3] = Group 3, oral capsule, 20 mg BHV-3500 in 25 mg DDM, individual dogs
[4] = Group 5, oral capsule, 50 mg BHV-3500 in 900 mg vehicle of Formulation 2 (SEDDS excipients), individual dogs

Cc1cc(C[C@@H](NC(=O)N2CCC(c3cc4ccccc4[nH]c3=O)CC2)C(=O)N2CCN(C3CCN(C)CC3)CC2)cc2cn[nH]c12 [BHV-3500, (R)—N-(3-(7-methyl-1H indazol-5-yl)-1-(4-(1-methylpiperidin-4-yl)piperazin-1-yl)-1-oxopropan-2-yl)-4-(2-oxo-1,2 dihydroquinolin-3-yl)piperidine-1-carboxamide]
plasma levels at all time points (Group 1, oral capsule, 20 mg BHV-3500, no vehicle): BQL (BQL = below quantitation limit (2.0 ng/mL))
BHV-3500 Concentration in Dog Plasma (Group 1, oral capsule, 20 mg BHV-3500, no vehicle, 0.25 h post-dose, average): BQL (BQL = below quantitation limit (2.0 ng/mL))
BHV-3500 Concentration in Dog Plasma (Group 1, oral capsule, 20 mg BHV-3500, no vehicle, 0.25 h post-dose, individual dogs): BQL (BQL = below quantitation limit (2.0 ng/mL))
BHV-3500 Concentration in Dog Plasma (Group 1, oral capsule, 20 mg BHV-3500, no vehicle, 0.5 h post-dose, average): BQL (BQL = below quantitation limit (2.0 ng/mL))
BHV-3500 Concentration in Dog Plasma (Group 1, oral capsule, 20 mg BHV-3500, no vehicle, 0.5 h post-dose, individual dogs): BQL (BQL = below quantitation limit (2.0 ng/mL))
BHV-3500 Concentration in Dog Plasma (Group 1, oral capsule, 20 mg BHV-3500, no vehicle, 1 h post-dose, average): BQL (BQL = below quantitation limit (2.0 ng/mL))
BHV-3500 Concentration in Dog Plasma (Group 1, oral capsule, 20 mg BHV-3500, no vehicle, 1 h post-dose, individual dogs): BQL (BQL = below quantitation limit (2.0 ng/mL))
BHV-3500 Concentration in Dog Plasma (Group 1, oral capsule, 20 mg BHV-3500, no vehicle, 2 h post-dose, average): BQL (BQL = below quantitation limit (2.0 ng/mL))
BHV-3500 Concentration in Dog Plasma (Group 1, oral capsule, 20 mg BHV-3500, no vehicle, 2 h post-dose, individual dogs): BQL (BQL = below quantitation limit (2.0 ng/mL))
BHV-3500 Concentration in Dog Plasma (Group 1, oral capsule, 20 mg BHV-3500, no vehicle, 4 h post-dose, average): BQL (BQL = below quantitation limit (2.0 ng/mL))
BHV-3500 Concentration in Dog Plasma (Group 1, oral capsule, 20 mg BHV-3500, no vehicle, 4 h post-dose, individual dogs): BQL (BQL = below quantitation limit (2.0 ng/mL))
AUC0-4 hr [1]: X
Cmax [1]: X
Tmax [2]: X
t1/2 [2]: X
BHV-3500 Concentration in Dog Plasma (Group 2, oral capsule, 20 mg BHV-3500 in 900 mg vehicle of Formulation 2 (SEDDS excipients), 0.25 h post-dose, average): BQL (BQL = below quantitation limit (2.0 ng/mL))
BHV-3500 Concentration in Dog Plasma (Group 2, oral capsule, 20 mg BHV-3500 in 900 mg vehicle of Formulation 2 (SEDDS excipients), 0.25 h post-dose, individual dogs): BQL (BQL = below quantitation limit (2.0 ng/mL))
BHV-3500 Concentration in Dog Plasma (Group 2, oral capsule, 20 mg BHV-3500 in 900 mg vehicle of Formulation 2 (SEDDS excipients), 0.5 h post-dose, average): BQL (BQL = below quantitation limit (2.0 ng/mL))
BHV-3500 Concentration in Dog Plasma (Group 2, oral capsule, 20 mg BHV-3500 in 900 mg vehicle of Formulation 2 (SEDDS excipients), 0.5 h post-dose, individual dogs): BQL (BQL = below quantitation limit (2.0 ng/mL))
BHV-3500 Concentration in Dog Plasma (Group 2, oral capsule, 20 mg BHV-3500 in 900 mg vehicle of Formulation 2 (SEDDS excipients), 1 h post-dose, individual dogs): BQL (BQL = below quantitation limit (2.0 ng/mL))
BHV-3500 Concentration in Dog Plasma (Group 2, oral capsule, 20 mg BHV-3500 in 900 mg vehicle of Formulation 2 (SEDDS excipients), 2 h post-dose, individual dogs): BQL (BQL = below quantitation limit (2.0 ng/mL)) and 19.4 ng/mL and 8.94 ng/mL
BHV-3500 Concentration in Dog Plasma (Group 2, oral capsule, 20 mg BHV-3500 in 900 mg vehicle of Formulation 2 (SEDDS excipients), 4 h post-dose, individual dogs): BQL (BQL = below quantitation limit (2.0 ng/mL))
Cmax (Group 2, oral capsule, 20 mg BHV-3500 in 900 mg vehicle of Formulation 2 (SEDDS excipients), individual dogs): 19.4 ng/mL and 8.94 ng/mL
BHV-3500 Concentration in Dog Plasma (Group 3, oral capsule, 20 mg BHV-3500 in 25 mg DDM, 0.25 h post-dose, average): BQL (BQL = below quantitation limit (2.0 ng/mL))
BHV-3500 Concentration in Dog Plasma (Group 3, oral capsule, 20 mg BHV-3500 in 25 mg DDM, 0.25 h post-dose, individual dogs): BQL (BQL = below quantitation limit (2.0 ng/mL))
BHV-3500 Concentration in Dog Plasma (Group 3, oral capsule, 20 mg BHV-3500 in 25 mg DDM, 0.5 h post-dose, individual dogs): BQL (BQL = below quantitation limit (2.0 ng/mL))
BHV-3500 Concentration in Dog Plasma (Group 3, oral capsule, 20 mg BHV-3500 in 25 mg DDM, 1 h post-dose, individual dogs): BQL (BQL = below quantitation limit (2.0 ng/mL))
BHV-3500 Concentration in Dog Plasma (Group 3, oral capsule, 20 mg BHV-3500 in 25 mg DDM, 2 h post-dose, individual dogs): 9.60 ng/mL and BQL (BQL = below quantitation limit (2.0 ng/mL)) and 28.2 ng/mL
BHV-3500 Concentration in Dog Plasma (Group 3, oral capsule, 20 mg BHV-3500 in 25 mg DDM, 4 h post-dose, individual dogs): BQL (BQL = below quantitation limit (2.0 ng/mL))
Cmax [3]: 9.60 ng/mL and 14.0 ng/mL and 28.2 ng/mL
Tmax [3]: 30 min
BHV-3500 Concentration in Dog Plasma (Group 4, oral capsule, 50 mg BHV-3500, no vehicle, 0.25 h post-dose, average): BQL (BQL = below quantitation limit (2.0 ng/mL))
BHV-3500 Concentration in Dog Plasma (Group 4, oral capsule, 50 mg BHV-3500, no vehicle, 0.25 h post-dose, individual dogs): BQL (BQL = below quantitation limit (2.0 ng/mL))
BHV-3500 Concentration in Dog Plasma (Group 4, oral capsule, 50 mg BHV-3500, no vehicle, 0.5 h post-dose, average): BQL (BQL = below quantitation limit (2.0 ng/mL))
BHV-3500 Concentration in Dog Plasma (Group 4, oral capsule, 50 mg BHV-3500, no vehicle, 0.5 h post-dose, individual dogs): BQL (BQL = below quantitation limit (2.0 ng/mL))
BHV-3500 Concentration in Dog Plasma (Group 4, oral capsule, 50 mg BHV-3500, no vehicle, 1 h post-dose, individual dogs): 4.25 ng/mL and 3.55 ng/mL
BHV-3500 Concentration in Dog Plasma (Group 4, oral capsule, 50 mg BHV-3500, no vehicle, 2 h post-dose, individual dogs): 4.35 ng/mL and 6.61 ng/mL
BHV-3500 Concentration in Dog Plasma (Group 4, oral capsule, 50 mg BHV-3500, no vehicle, 4 h post-dose, average): BQL (BQL = below quantitation limit (2.0 ng/mL))
BHV-3500 Concentration in Dog Plasma (Group 4, oral capsule, 50 mg BHV-3500, no vehicle, 4 h post-dose, individual dogs): BQL (BQL = below quantitation limit (2.0 ng/mL))
Cmax (Group 4, oral capsule, 50 mg BHV-3500, no vehicle, individual dogs): 4.35 ng/mL and 6.61 ng/mL
increase of plasma level versus no vehicle (Group 4) (1 hour post-dose): 3.4 ×
increase of plasma level versus no vehicle (Group 4) (2 hours post-dose): 6.6 ×
BHV-3500 Concentration in Dog Plasma (Group 5, oral capsule, 50 mg BHV-3500 in 900 mg vehicle of Formulation 2 (SEDDS excipients), 0.25 h post-dose, average): BQL (BQL = below quantitation limit (2.0 ng/mL))
BHV-3500 Concentration in Dog Plasma (Group 5, oral capsule, 50 mg BHV-3500 in 900 mg vehicle of Formulation 2 (SEDDS excipients), 0.25 h post-dose, individual dogs): BQL (BQL = below quantitation limit (2.0 ng/mL))
BHV-3500 Concentration in Dog Plasma (Group 5, oral capsule, 50 mg BHV-3500 in 900 mg vehicle of Formulation 2 (SEDDS excipients), 0.5 h post-dose, average): BQL (BQL = below quantitation limit (2.0 ng/mL))
BHV-3500 Concentration in Dog Plasma (Group 5, oral capsule, 50 mg BHV-3500 in 900 mg vehicle of Formulation 2 (SEDDS excipients), 0.5 h post-dose, individual dogs): BQL (BQL = below quantitation limit (2.0 ng/mL))
BHV-3500 Concentration in Dog Plasma (Group 5, oral capsule, 50 mg BHV-3500 in 900 mg vehicle of Formulation 2 (SEDDS excipients), 1 h post-dose, individual dogs): 6.19 ng/mL and 5.55 ng/mL and 22.7 ng/mL
BHV-3500 Concentration in Dog Plasma (Group 5, oral capsule, 50 mg BHV-3500 in 900 mg vehicle of Formulation 2 (SEDDS excipients), 2 h post-dose, individual dogs): 13.8 ng/mL and 6.90 ng/mL and 101 ng/mL
BHV-3500 Concentration in Dog Plasma (Group 5, oral capsule, 50 mg BHV-3500 in 900 mg vehicle of Formulation 2 (SEDDS excipients), 4 h post-dose, individual dogs): 6.88 ng/mL and 2.62 ng/mL and 14.4 ng/mL
AUC0-4 hr [4]: 32.8 ng·h/mL and 17.7 ng·h/mL and 161 ng·h/mL
Cmax [4]: 13.8 ng/mL and 6.90 ng/mL and 101 ng/mL
BHV-3500 Concentration in Dog Plasma (Group 6, oral capsule, 50 mg BHV-3500 in 25 mg DDM, 0.25 h post-dose, average): BQL (BQL = below quantitation limit (2.0 ng/mL))
BHV-3500 Concentration in Dog Plasma (Group 6, oral capsule, 50 mg BHV-3500 in 25 mg DDM, 0.25 h post-dose, individual dogs): BQL (BQL = below quantitation limit (2.0 ng/mL))
BHV-3500 Concentration in Dog Plasma (Group 6, oral capsule, 50 mg BHV-3500 in 25 mg DDM, 0.5 h post-dose, average): BQL (BQL = below quantitation limit (2.0 ng/mL))
BHV-3500 Concentration in Dog Plasma (Group 6, oral capsule, 50 mg BHV-3500 in 25 mg DDM, 0.5 h post-dose, individual dogs): BQL (BQL = below quantitation limit (2.0 ng/mL))
BHV-3500 Concentration in Dog Plasma (Group 6, oral capsule, 50 mg BHV-3500 in 25 mg DDM, 1 h post-dose, individual dogs): BQL (BQL = below quantitation limit (2.0 ng/mL))
